The assay deals with T1, IRAK4 (Homo sapiens, UniProt Q9NWZ3).
T1 sequence (Q9NWZ3 1-460): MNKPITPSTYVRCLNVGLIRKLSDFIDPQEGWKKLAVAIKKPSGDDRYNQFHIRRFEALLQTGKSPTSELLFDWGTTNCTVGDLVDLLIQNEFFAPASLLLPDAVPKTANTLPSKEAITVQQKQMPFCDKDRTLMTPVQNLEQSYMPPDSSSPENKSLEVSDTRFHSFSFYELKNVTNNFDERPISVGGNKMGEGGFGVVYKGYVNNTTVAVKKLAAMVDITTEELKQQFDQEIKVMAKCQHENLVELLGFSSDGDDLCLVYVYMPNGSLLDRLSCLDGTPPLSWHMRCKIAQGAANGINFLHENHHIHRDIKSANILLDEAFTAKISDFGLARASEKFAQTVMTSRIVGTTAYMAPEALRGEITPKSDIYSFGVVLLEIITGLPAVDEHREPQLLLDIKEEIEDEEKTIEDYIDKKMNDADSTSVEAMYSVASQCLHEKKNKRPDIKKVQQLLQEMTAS
The assay can be described thus: Hibit fluorescence detection of proteolysis (IRAK4-HiBiT in HEK293T cells). As to conditions: for Dmax: HEK-293T; for DC50: IRAK4-HiBiT, HEK293T cells, 24 h. Set-up: host or cells: HEK293T (ATCC). In kind it is cell-based. How it is done:
Utilizing HiBiT tag technology, the HiBiT tag-containing sequence (Seq. ID. No. 1, Beijing Tsingke Biotech Co., Ltd.) was connected to the IRAK4 plasmid (Seq. ID. No. 2, Beijing Tsingke Biotech Co., Ltd.), and the plasmid was transfected into HEK293T cells (ATCC). […] The 6-well plate that was incubated overnight was taken out. After the plate was left at room temperature for 15 min, the obtained mixture was added dropwise to the 6-well plate. […] Culture was performed at 37°C and 5% CO2 for 24 h. The 384-well plate was taken out and equilibrated to room temperature. 40 µL of Nano-Glo® HiBiT Lytic Detection System (Promega N3030) was added to each well and incubated at room temperature for 15 min. […] Prism 9.3 software was used to perform fitting analysis for data, and non-linear fitting (non-liner inhibitor (Bell-shaped)) and four parameters (4 parameter) were used, and the parameters was as follows: Span1 = Plateau1−Dip [formula] Span2 = Plateau2−Dip [formula] Section1 = Span1/(1+10^(∧)((LogEC50_1−X)*nH1)) [formula] Section2 = Span2/(1+10^(∧)((X−LogEC50_2)*nH2)) [formula]
The equation was as follows: Y=Dip+Section1+Section2. • Seq. ID. No. 1 ([…]), other DNA, synthetic construct, sequence length 33; • Seq. ID. No. 2 [formula]
On the technique in general: HiBiT is a short tag that completes a luciferase, so light tracks the accessible tagged protein.

Structures can show the parent of a compound that is named as a salt. Where two headings read alike, the source gives them in different places.

For `Cn1c(=O)n(C2CCC(=O)NC2=O)c2cccc(N3CCN(C4CCN(C[C@H]5CC[C@H](n6cc(-n7cc(-n8ccc9cc(C(N)=O)cnc98)nn7)c(C(F)F)n6)CC5)CC4)CC3)c21` (stereo partly shown) [Example 104, 1-(1-(3-(difluoromethyl)-1-((1r,4r)-4-((4-(4-(1-(2,6-dioxopiperidin-3-yl)-3-methyl-2-oxo-2,3-dihydro-1H-benzo[d]imidazol-4-yl)piperazin-1-yl)piperidin-1-yl)methyl)cyclohexyl)-1H-pyrazol-4-yl)-1H-1,2,3-triazol-4-yl)-1H-pyrrolo[2,3-b]pyridine-5-carboxamide], the Dmax is more than 80% and the DC50 is less than 0.5 nM.

Compound `Cn1c(=O)n(C2CCC(=O)NC2=O)c2cccc(N[C@H]3CC[C@H](N(C)C[C@H]4CC[C@H](n5cc(-n6cc(-c7cnn8ccc(N9CCC(C)(O)CC9)nc78)nn6)c(C(F)F)n5)CC4)CC3)c21` (stereo partly shown) [Compound 237] displayed a Dmax of 70 to 80%. The DC50 (read-out: DC50) is less than 0.5 nM.

`Cn1c(=O)n(C2CCC(=O)NC2=O)c2cccc(N3CCN(C[C@H]4CC[C@H](n5cc(-n6cc(-c7cnn8ccc(N[C@@H]9CCCC[C@@H]9O)nc78)nn6)c(C(F)F)n5)CC4)CC3)c21` (stereo partly shown) [Example 268] registered a Dmax of 70 to 80% and a DC50 of 0.5 to 1 nM.

As for `Cn1c(=O)n(C2CCC(=O)NC2=O)c2cccc(N3CCC(N4CCN(C[C@H]5CC[C@H](n6cc(-n7cc(-c8cnn9ccc(N%10CCS(=O)(=O)CC%10)nc89)nn7)c(C(F)F)n6)CC5)CC4)CC3)c21` (stereo partly shown) [Example 111, 3-(4-(4-(((1r,4r)-4-(3-(difluoromethyl)-4-(4-(5-(1,1-dioxodimorpholinyl)pyrazolo[1,5-a]pyrimidin-3-yl)-1H-1,2,3-triazol-1-yl)-1H-pyrazol-1-ylcyclohexyl)methyl)piperazin-1-yl)piperidin-1-yl)-3-methyl-2-oxo-2,3-dihydro-1H-benzo[d]imidazol-1-yl)pyridine-2,6-dione], the Dmax is more than 80% and the DC50 was in the range of 0.5 to 1 nM.

Take `Cn1c(=O)n(C2CCC(=O)NC2=O)c2cccc(N3CCN(C4CCN(C[C@H]5CC[C@H](n6cc(-n7cc(-c8cnn9ccc(N%10CCC[C@H](N)C%10)nc89)nn7)c(C(F)F)n6)CC5)CC4)CC3)c21` (stereo partly drawn) [Example 117, 3-{4-[4-(1-{[(1S,4r)-4-[3-(difluoromethyl)-4-(4-{5-[(3S)-3-aminohexahydropyridin-1-yl]pyrazolo[1,5-a]pyrimidin-3-yl}-1,2,3-triazol-1-yl)pyrazol-1-yl]cyclohexyl]methyl}hexahydropyridin-4-yl)piperazin-1-yl]-3-methyl-2-oxobenzo[d]imidazol-1-yl}hexahydropyridine-2,6-dione hydrochloride]: the Dmax was more than 80% and the DC50 was in the range of 1 to 5 nM.

For the compound `Cn1c(=O)n(C2CCC(=O)NC2=O)c2cccc(N3CCC4(CCN(C[C@H]5CC[C@H](n6cc(-n7cc(-c8cnn9ccc(N%10CCOCC%10)nc89)nn7)c(C(F)F)n6)CC5)C4)C3)c21` (stereo partly shown) [Example 32, 3-(4-((1r,4r)-4-(3-(difluoromethyl)-4-(4-(5-morpholinopyrazolo[[1,5-a]pyrimidin-3-yl)-1H-1,2,3-triazol-1-yl)-1H-pyrazol-1-yl)cyclohexylmethyl)-2,7-diazaspiro[4.4]non-2-yl)-3-methyl-2-oxo-2,3-dihydro-1H-benzo[d]imidazol-1-yl)piperidine-2,6-dione], the Dmax was in the range of 70 to 80% and the DC50 is less than 0.5 nM.

For the compound `Cn1c(=O)n(C2CCC(=O)NC2=O)c2cccc(N3CCC4(CCN(C[C@H]5CC[C@H](n6cc(-n7cc(-c8cnn9ccc(N%10CCC[C@H](O)C%10)nc89)nn7)c(C(F)F)n6)CC5)CC4)C3)c21` (stereo partly shown) [Example 143], the Dmax was more than 80% and the DC50 is less than 0.5 nM.

With `O=C1CCC(N2C(=O)c3ccc(N4CC(CN5CCC(n6cc(-n7cc(-c8cnn9ccc(N%10CCOCC%10)nc89)nn7)c(C(F)F)n6)CC5)C4)cc3C2=O)C(=O)N1` (stereo not shown) [Example 78], the Dmax was 70 to 80% and the DC50 lay in the range of 1 to 5 nM.
